Assay results as given in patent US5208032A, “Increasing the growth of turkeys using implant of 19-nortestosterone” (Rutgers, The State University of New Jersey, priority 1992, dated 1993).

How the values were obtained:
5-alpha-DHT anti-serum [1] = conditions: antibody provided by Dr. Alan L. Johnson; cited from earlier work
5-alpha-DHT anti-serum [2] = experiment: Radioimmunoassay for 5-alpha-DHT: antiserum reaction and inhibition of binding; conditions: standard curve
Experimental: The following will briefly outline the procedure used for determination of plasma concentration of 5-alpha-DHT. The 5-alpha-DHT anti-serum (Ford's-F/1) was kindly provided by Dr. Alan L. Johnson, Rutgers University, New Brunswick, N.J. This antibody reacted 100% to 5-alpha-DHT,7.9% to testosterone and 11.4% to androstenedione. The antibody was diluted to 1:20,000 in PBSG and stored at 4° C. until added to assay that same day.
5-alpha-Dihydrotestosterone was extracted from plasma ([…]) using benzene:toluene (2:1), with an extraction efficiency of 83.4±6.4 (SD) %. Since further purification of the crude sample extract (i.e., by column chromatography) was not performed, it became necessary to also add extracts from steroid free plasma (i.e., stripped by dextran-coated charcoal) to the standard curve tubes prior to the addition of the different doses of the standard 5-alpha-DHT solutions (3.125 to 1600 pg). […] Following the drying process (Savant-high speed concentrator), 200 microliters 5-alpha-DHT anti-serum solution wwere added to each standard or unknown. After brief vortex mixing, 200 microliters of [1,2,3,7^-3 H] 5-alpha-DHT (^~ 10,000 cpm) was added to each tube and the mixture allowed to incubate overnight at 4° C. The antibody-hormone-bound fraction was separated from the non-bound fraction using a charcoal-dextran suspension. Radioactivity of the bound fraction was measured using a liquid scintillation counter. The percentage bound of the standards was plotted against the log of the hormone concentration to yield a standard curve. Potency estimates of the unknowns were calculated from this standard curve.
Sensitivity of the assay was less than 50.0 pg/ml, while the mean within-assay CV for the low (37.7 pg/ml for plasma stripped and pooled from 3 adult male White Leghorn chickens) and high (265 pg/ml for plasma pooled and not stripped from 3 adult male White Leghorn chickens) plasma pools (n=5) wwas less than 9.4%. The mean between-assay CV for the low and high plasma pools was less than 12.9% (n=7).

testosterone antiserum = experiment: Radioimmunoassay for testosterone: antiserum cross-reaction and inhibition of binding; design: species or system rabbits; conditions: standard curve
Experimental: Plasma concentrations of testosterone were assayed using component kits from Immuchem Corporation (Carson, Calif.) in which charcoal-stripped chicken plasma (free of testosterone) was used to make up the standards. The antibody is covalently bound to the inner surface of each polypropylene tube (testosterone-19-carboxymethylether-BSA was the antigen used to generate the antiserum in rabbits). To these tubes (at room temperature), a 50 microliter volume of either standard or unknown plasma as added directly without extraction. Following this, a 1000-microliter volume (^~ 40,000 cpm) of ^125 I-testosterone (purified by HPLC and radio-iodinated at position 19; Immuchem Corp.) in phosphosaline buffer-gelatin (pH 7.0) was added and the mixture was vortex mixed briefly. After a 2 hour incubation at room temperature, tubes were placed into styrofoam holding racks and the supernatant decanted onto tin trays lined with newspapers. Residual supernatant left on inside walls of tubes was removed by everting styrofoam holding racks and impacting them onto dry absorbent paper towels. At this point, the assay tubes, with their wall bound antibody-antigen complexes, were counted on a Beckman 5500 gamma counter to determine the radioactivity (^125 I-testosterone) which was antibody-bound. The plasma concentrations of testosterone in unknown samples were determine based on the standards (from 0.10-10 ng/ml) in charcoal-stripped chicken plasma included with each assay.
The Immuchem testosterone antiserum cross-reacts 100% with testosterone, 7.8% with 5-alpha-DHT, 0.56% with 4-adrosten-3,17-dione, and less than 0.01% with 5-alpha-androstane-3-alpha,17-beta-diol and estrogens (manufacturer statement). […] The mean between-assay CV for low and high plasma pools was less than 11.0% (n=5).

Structure (SMILES) | reaction with 5-alpha-DHT anti-serum (Ford's-F/1) (5-alpha-DHT anti-serum [1]) | 80 percent inhibition of binding (5-alpha-DHT anti-serum [2]; n=7) | Twenty percent inhibition of binding (5-alpha-DHT anti-serum [2]; n=7) | 50 percent inhibition of binding (5-alpha-DHT anti-serum [2]; n=7, 3.125 to 1600 pg) | 80 percent inhibition of binding (testosterone antiserum; n=5) | Twenty percent inhibition of binding (testosterone antiserum; n=5) | 50 percent inhibition of binding (testosterone antiserum; n=5, 1.95 pg to 500 pg)
C[C@]12CCC(=O)C[C@@H]1CC[C@@H]1[C@@H]2CC[C@]2(C)[C@@H](O)CC[C@@H]12 [5-alpha-DHT, 5-alpha-dihydrotestosterone] | 100% | 321.4±31.9 pg/tube | 16.9±2.1 pg/tube | 67.4±8.2 pg/tube |  |  | 
C[C@]12CC[C@H]3[C@@H](CCC4=CC(=O)CC[C@@]43C)[C@@H]1CC[C@@H]2O [Testosterone, testosterone] |  |  |  |  | 462.5±1.5 pg/tube | 15.8±1.7 pg/tube | 78.8±9.6 pg/tube
